{"source": "patent US8795611B2", "about": "(priority 2009, dated 2014)", "key": {"[1]": {"assay_type": "physicochemical", "conditions": "1.5 mol/L DEHiBA in Isane IP 185, HNO3 0.5 to 4 M, 25° C."}, "[2]": {"experiment": "Distribution coefficient, single contact in tubes, 1.5 mol/L DEHiBA in Isane IP 185 vs nitric acid solutions (ICP-AES)", "assay_type": "physicochemical", "conditions": "nitric acid 4 mol/L, regardless of the uranium concentration, 25° C."}, "[3]": {"experiment": "Distribution coefficient, single contact in tubes, 1.5 mol/L DEHiBA in Isane IP 185 vs nitric acid solutions (ICP-AES)", "assay_type": "physicochemical", "conditions": "HNO3 0.5 to 4 M, 25° C."}, "[4]": {"experiment": "Distribution coefficient, single contact in tubes, 1.5 mol/L DEHiBA in Isane IP 185 vs nitric acid solutions (ICP-AES)", "assay_type": "physicochemical", "conditions": "HNO3 0.5 to 4 M, 25° C.", "remark": "listed apart in the source"}, "[5]": {"experiment": "Distribution coefficient, single contact in tubes, 1.5 mol/L DEHiBA in Isane IP 185 vs nitric acid solutions (ICP-AES)", "assay_type": "physicochemical", "conditions": "HNO3 0.5 to 4 M, 25° C.", "remark": "listed apart in the source"}, "[6]": {"experiment": "Distribution coefficient, single contact in tubes, 1.5 mol/L DEHiBA in Isane IP 185 vs nitric acid solutions (ICP-AES)", "assay_type": "physicochemical", "conditions": "HNO3 0.5 to 4 M, 25° C.", "remark": "listed apart in the source"}, "[7]": {"experiment": "Solubility of DEHiBA in an aqueous phase by total organic carbon (TOC) measurement, test in mixers-decanters", "assay_type": "physicochemical", "conditions": "for DEHiBA equivalent: assumes all organic carbon stems from the extractant", "excerpt": "The solubility of DEHiBA in an aqueous phase was appreciated by conducting a test in mixers-decanters similar to the one described in Example 1 hereinbefore and by measuring the total organic carbon (or TOC) present in the aqueous phase exiting the battery 11 (called <<extraction raffinate>> hereafter) on the one hand and, in the aqueous phase exiting the battery 13 and containing the purified uranyl nitrate (called <<U production>> hereafter) on the other hand.\nThe total organic carbon was measured by means of a thermal TOC-meter in the aqueous phases as obtained after decantation, i.e. without submitting these phases to any centrifugation."}, "[8]": {"assay_type": "physicochemical", "conditions": "1.5 mol/L DEHiBA in Isane IP 185; aqueous 360 g/L uranium, 2 mol/L nitric acid; even after uranium depletion; 25° C."}, "[9]": {"conditions": "with or without 30 g/L uranium, 1 hour"}}}
{"smiles": "CCCCC(CC)CN(CC(CC)CCCC)C(=O)C(C)C", "note": "(stereo not drawn) [DEHiBA, N,N-di-(2-ethylhexyl)isobutyramide]", "values": [{"measurement": "U/impurities separation factor (iron)", "setting": "[1]", "value": "greater than 10,000"}, {"measurement": "distribution coefficient of iron", "setting": "[1]; [9]", "value": "less than 10^−3"}, {"measurement": "distribution coefficient of thorium(IV)", "setting": "[2]", "value": "less than 5.10^−3"}, {"measurement": "U/impurities separation factor (calcium)", "setting": "[3]", "value": "greater than 10,000"}, {"measurement": "distribution coefficient of calcium", "setting": "[3]; [9]", "value": "less than 10^−3"}, {"measurement": "U/impurities separation factor (vanadium)", "setting": "[4]", "value": "greater than 10,000"}, {"measurement": "distribution coefficient of vanadium", "setting": "[4]; [9]", "value": "less than 10^−3"}, {"measurement": "U/impurities separation factor (zirconium)", "setting": "[5]", "value": "greater than 10,000"}, {"measurement": "distribution coefficient of zirconium", "setting": "[5]; [9]", "value": "less than 10^−3"}, {"measurement": "U/impurities separation factor (molybdenum)", "setting": "[6]", "value": "greater than 10,000"}, {"measurement": "distribution coefficient of molybdenum", "setting": "[6]; [9]", "value": "less than 10^−3"}, {"measurement": "DEHiBA equivalent", "setting": "[7]; U production, HNO3 0.34 mol/L", "value": 0.00019, "unit": "mol/L"}, {"measurement": "solubility", "setting": "[7]; aqueous phase after decantation, under the conditions of the test, includes diluent (TPH) and carried-away organic phase, read-out: DEHiBA soluble in an aqueous phase", "value": "40 to 60", "unit": "µg/mL"}, {"measurement": "DEHiBA equivalent", "setting": "[7]; extraction raffinate, HNO3 3.1 mol/L", "value": 0.00013, "unit": "mol/L"}, {"measurement": "distribution coefficient of thorium 234, DTh", "setting": "[8]", "value": "less than 10^−2"}]}
